PubChem BioAssay (NCI)
Values joined by “and” are separate entries in the source; they are usually repeats but may differ in a detail not shown here. Equal entries are not always repeated.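 Cultured in 96-well plates, cells were exposed to test compound for 48 hours across five concentrations. Here, GI50 denotes the concentration required for 50% inhibition of growth. Definition used: TGI = concentration required for complete inhibition of growth.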

Legend:
Assay in all cases: NCI tumour cell line growth inhibition, 48 h
UO-31 renal = system: UO-31 renal
UACC-62 melanoma = system: UACC-62 melanoma
HOP-92 NSCLC = system: HOP-92 NSCLC
COLO 205 colon = system: COLO 205 colon
SF-268 CNS = system: SF-268 CNS
U251 CNS = system: U251 CNS
OVCAR-3 ovarian = system: OVCAR-3 ovarian
NCI/ADR-RES ovarian = system: NCI/ADR-RES ovarian
PC-3 prostate = system: PC-3 prostate
T-47D breast = system: T-47D breast

SMILES	TGI (UO-31 renal)	TGI (UACC-62 melanoma)	TGI (HOP-92 NSCLC)	TGI (COLO 205 colon)	TGI (SF-268 CNS)	TGI (U251 CNS)	TGI (OVCAR-3 ovarian)	GI50 (UO-31 renal) [µM]	GI50 (NCI/ADR-RES ovarian) [µM]	TGI (NCI/ADR-RES ovarian) [µM]	GI50 (UACC-62 melanoma) [µM]	GI50 (PC-3 prostate) [µM]	TGI (PC-3 prostate) [µM]	GI50 (COLO 205 colon) [µM]	GI50 (SF-268 CNS) [µM]	GI50 (U251 CNS) [µM]	GI50 (OVCAR-3 ovarian) [µM]	GI50 (T-47D breast) [µM]	TGI (T-47D breast) [µM]	GI50 (HOP-92 NSCLC) [µM]
O=C1CCCCC1S(=O)(=O)c1ccccc1 (stereo unspecified)	> 100 µM	> 100 µM	> 100 µM	> 100 µM	> 100 µM	> 100 µM	> 100 µM													
O=S(=O)(/C=C/c1ccc(F)cc1)Cc1ccc(CS(=O)(=O)/C=C/c2ccc(F)cc2)cc1	> 100 µM	> 100 µM	> 100 µM	> 100 µM	> 100 µM	> 100 µM	> 100 µM													
NNC(=O)C1CCC(=O)N1S(=O)(=O)c1ccccc1 (stereo unspecified)	> 100 µM	> 100 µM	> 100 µM	> 100 µM	> 100 µM	> 100 µM	> 100 µM													
CCCCCCCCCCCCCCCC(=O)OCC1OC(n2cc(F)c(=O)[nH]c2=O)C(N)C(O)C1O (stereo unspecified)	30.8 µM	30 µM	38.9 µM	34 µM	35.2 µM	32.4 µM	9.72 µM													
Cc1nc(Nc2ccccc2)sc1C(=O)CC(=O)C(=O)Nc1c(C(C)C)cccc1C(C)C	> 100 µM	> 100 µM	> 100 µM	> 100 µM	> 100 µM	> 100 µM	> 100 µM													
O=C(c1ccc(Cl)cc1Cl)C1[C@H]2C(=O)N(c3ccc(Cc4ccc(N5C(=O)[C@@H]6ON(c7ccccc7)C(C(=O)c7ccc(Cl)cc7Cl)[C@@H]6C5=O)cc4)cc3)C(=O)[C@H]2ON1c1ccccc1 (stereo partly specified)	> 50 µM	> 50 µM		> 50 µM	> 50 µM	> 50 µM	> 50 µM													
Cc1ccc2c(c1)-c1c3c(nn1-c1ccccc1)-c1ccccc1SC3O2 (stereo unspecified)	> 100 µM		> 100 µM	> 100 µM	> 100 µM	> 100 µM	> 100 µM													
CCOC(=O)/C(C1=NCCN1)=C(\O)c1ccccc1	> 100 µM	> 100 µM		> 100 µM	> 100 µM	> 100 µM	> 100 µM													
CCCCOC(=O)N1CCN(/[N+]([O-])=N/Oc2ccc([N+](=O)[O-])cc2[N+](=O)[O-])CC1	41.3 µM	26.8 µM		5.99 µM	25.4 µM	21.8 µM	4.12 µM	3.84	3.43	> 100	13.6	14	30.8	2.63	6.42	5.85	1.68			
COc1cc2ccnc3c2c(c1OC)-c1coc(SC)c1-3	> 100 µM	> 100 µM	> 100 µM	> 100 µM	> 100 µM	> 100 µM														
c1cncc(C2N3CCCCC3[C@@H]3c4[nH]c5ccccc5c4CCN23)c1 (stereo partly specified)	> 100 µM	> 100 µM	> 100 µM		> 100 µM	> 100 µM	> 100 µM													
Nc1ncnc2c1N=C(c1ccc3c(c1)OCO3)CC(c1ccc([N+](=O)[O-])cc1)N2 (stereo unspecified)	> 100 µM	> 100 µM		> 100 µM	> 100 µM	> 100 µM	> 100 µM	18.1	55.4	> 100	76.9	31.1	> 100	92	42	49.3	88.3	80.7	> 100	
CN1CCN(C(=O)C(C)(C)c2ccc(C(=O)Nc3cn4cc(-c5ccncc5)ccc4n3)cc2)CC1	1.3 µM		7.11 µM		10.5 µM	> 100 µM	0.431 µM	0.272	0.917	> 100		0.382	> 70.2	0.289	0.38	0.332	0.126	0.201	> 100	0.366
NC(=O)CN(CC(N)=O)C(N)=O	> 100 µM	> 100 µM	> 100 µM	> 100 µM	> 100 µM	> 100 µM	> 100 µM													
CC(=O)[CH-]C(=O)c1ccccc1.CC(=O)[CH-]C(=O)c1ccccc1.CC[O-].CC[O-].[Hf+4]	> 100 µM	> 100 µM	> 100 µM	> 100 µM	> 100 µM	> 100 µM	> 100 µM	> 100			> 100			> 100	> 100	> 100	> 100			36.8
CC1=NN(C(=O)c2ccccc2O)C(=O)/C1=C/c1ccc(O)cc1		5.06 µM		> 94.6 µM	> 100 µM	> 100 µM	3.43 µM			28.3			> 100						> 100	
COc1ccc2c(CN3CCCC[C@H]3C(=O)O)cc3cc4c(cc3c2c1)OCO4		2.34 µM	5.19 µM	2.88 µM	1.39 µM	5.4 µM	3.41 µM		7.11	65.7	1.02	2.53	7.14	0.494	0.175	1.96	0.688	2.05	8.04	1.86
CCCCCCC[CH2][Sn]([CH2]CCCCCCC)([O]c1cccc2cccnc12)[O]c1cccc2cccnc12	5.42 µM	3.9 µM		3.41 µM	10.7 µM	3.25 µM	6.62 µM	2			1.82			1.86	2.68	1.72	1.85			
C[C@@]12CCC(=O)c3coc(c31)C(=O)c1cc3c(cc12)C(=O)C=CC3=O	> 1 µM and 30.9 µM	> 1 µM and 28.9 µM	> 1 µM and 19.6 µM	> 1 µM and 29.7 µM	> 1 µM and 38 µM	> 1 µM and 52.9 µM	> 1 µM and 32.7 µM	> 1			> 1			> 1	> 1	> 1	> 1			> 1
CCOc1cc2c(C(=O)CC)c(O)ccc2o1	> 100 µM	> 52.8 µM	> 100 µM	> 100 µM	> 100 µM	> 100 µM	> 100 µM													
